For series [1] the following is noted: 100 kPa, Liquid, Vibrating tube method.
Series [2] in a line: mn = molality of the nth substance listed, in mol/kg. To be noted: 100 kPa, Liquid, Vibrating tube method, m2 = 0.

± gives the expanded uncertainty stated by the source.

What is called mass density is mass per unit of volume. In the case of `CCCCO` [butan-1-ol], the mass density in series [1] (283.15 K) is on record as 817.103 ± 0.22 kg/m3; in series [1] (288.15 K) it was 813.337 ± 0.22 kg/m3; in series [1] (293.15 K) it was 809.548 ± 0.22 kg/m3; in series [1] (298.15 K), 805.738 ± 0.22 kg/m3; in series [1] (303.15 K), 801.901 ± 0.22 kg/m3; in series [1] (308.15 K), 798.032 ± 0.22 kg/m3. The mass density in series [1] (313.15 K) is on record as 794.128 ± 0.23 kg/m3; in series [1] (318.15 K), 790.181 ± 0.23 kg/m3.
Consider `CCCCO` [butan-1-ol] + CCCCn1cc[n+](C)c1.F[B-](F)(F)F, for which the mass density in series [2] (283.15 K) worked out at 817.103 ± 0.23 kg/m3; in series [2] (288.15 K) it was 813.337 ± 0.23 kg/m3; in series [2] (293.15 K), 809.548 ± 0.23 kg/m3; in series [2] (298.15 K) it was 805.738 ± 0.23 kg/m3; in series [2] (303.15 K), 801.901 ± 0.23 kg/m3; in series [2] (308.15 K), 798.032 ± 0.23 kg/m3. For the same compound, the mass density amounted to 794.128 ± 0.23 kg/m3 in series [2] (313.15 K) and 790.181 ± 0.23 kg/m3 in series [2] (318.15 K).
Regarding `CCCCO` [butan-1-ol] + CCn1cc[n+](C)c1.F[B-](F)(F)F, the mass density in series [2] (283.15 K) is 817.103 ± 0.23 kg/m3; in series [2] (288.15 K), 813.337 ± 0.23 kg/m3; in series [2] (293.15 K), 809.548 ± 0.23 kg/m3; in series [2] (298.15 K), 805.738 ± 0.23 kg/m3; in series [2] (303.15 K), 801.901 ± 0.23 kg/m3; in series [2] (308.15 K), 798.032 ± 0.23 kg/m3. The mass density is reported as 794.128 ± 0.23 kg/m3 in series [2] (313.15 K) and 790.181 ± 0.23 kg/m3 in series [2] (318.15 K).

These data come from the NIST ThermoML archive (doi:10.1016/j.jct.2015.12.029).
